Where a name gives a salt, the structure may show the parent alone.
Row | Compound | melting point
1 | CCn1c(-c2cccc(F)c2)nc2c(N)nc(C#CC(C)(C)O)nc21.Cl | 193 to 196 °C
2 | Cl.Nc1nc(C#CC2(O)CCCC2)nc2c1nc(-c1cccc(F)c1)n2C1CC1 | 220 to 223 °C
3 | Cl.Cn1c(-c2cc(F)ccc2F)nc2c(N)nc(C#CC3(O)CCC3)nc21 | 149 to 152 °C
4 | CCC(O)(C#Cc1nc(N)c2nc(-c3cc(F)cc(F)c3)n(C)c2n1)CC.Cl | 207 to 210 °C
5 | CC(C)C(C)(O)C#Cc1nc(N)c2nc(-c3cccc(F)c3)n(C)c2n1.Cl (stereo not drawn) | 191 to 192 °C
6 | Cl.Cn1c(-c2cccc(F)c2)nc2c(N)nc(C#CC(C)(O)C(C)(C)C)nc21 (stereo not drawn) | 193 to 194 °C
7 | Cl.Cn1c(-c2cccc(F)c2)nc2c(N)nc(C#CC3(O)CCC(c4ccccc4)CC3)nc21 (stereo not drawn) | 247 to 249 °C
8 | CCCn1c(-c2cccc(F)c2)nc2c(N)nc(C#CC(O)(CC)CC)nc21.Cl | 144 to 147 °C
9 | CCn1c(-c2cc(F)cc(F)c2)nc2c(N)nc(C#CC3(O)CCCC3)nc21.Cl | 217 to 218 °C
10 | CCn1c(-c2cc(F)cc(F)c2)nc2c(N)nc(C#CC(O)(CC)CC)nc21.Cl | 204 to 205 °C
11 | CCn1c(-c2cc(F)cc(F)c2)nc2c(N)nc(C#CC3(O)CCC3)nc21.Cl | 234 to 235 °C
12 | CCn1c(-c2cc(F)cc(F)c2)nc2c(N)nc(C#CC(C)(C)O)nc21.Cl | 233 to 234 °C
13 | Cl.Nc1nc(C#CC2(O)CCCC2)nc2c1nc(-c1cc(F)cc(F)c1)n2C1CC1 | 265 to 266 °C
14 | Cl.Nc1nc(C#CC2(O)CCC2)nc2c1nc(-c1cc(F)cc(F)c1)n2C1CC1 | 228 °C
15 | CC(C)(O)C#Cc1nc(N)c2nc(-c3cc(F)cc(F)c3)n(C3CC3)c2n1.Cl | 245 °C
16 | CCC(O)(C#Cc1nc(N)c2nc(-c3cccc(F)c3)n(C3CC3)c2n1)CC.Cl | 145 to 148 °C
17 | CC(C)(O)C#Cc1nc(N)c2nc(-c3cccc(F)c3)n(C3CC3)c2n1.Cl | 143 to 145 °C
18 | CCCn1c(-c2cc(F)cc(F)c2)nc2c(N)nc(C#CC(O)(CC)CC)nc21.Cl | 183 to 184 °C
19 | CCCn1c(-c2cc(F)cc(F)c2)nc2c(N)nc(C#CC3(O)CCCC3)nc21.Cl | 210 to 211 °C
20 | CCC(O)(C#Cc1nc(N)c2nc(-c3ccc(C)o3)n(C)c2n1)CC.Cl | 229 to 230 °C

Row | Compound | melting point
21 | CCC(O)(C#Cc1nc(N)c2nc(-c3cc(F)cc(F)c3)n(C3CC3)c2n1)CC.Cl | 225 °C
22 | Cl.Cn1c(-c2cc(F)cc(F)c2)nc2c(N)nc(C#CC(C)(C)O)nc21 | 237 to 238 °C
23 | CCC(O)(C#Cc1nc(N)c2nc(-c3cc(F)ccc3F)n(C)c2n1)CC.Cl | 147 to 148 °C
24 | Cl.Cn1c(-c2cc(F)ccc2F)nc2c(N)nc(C#CC(C)(C)O)nc21 | 177 to 178 °C
25 | CCn1c(-c2cccc(F)c2F)nc2c(N)nc(C#CC(C)(C)O)nc21.Cl | 213 to 215 °C
26 | CCn1c(-c2cccc(F)c2F)nc2c(N)nc(C#CC(O)(CC)CC)nc21.Cl | 222 to 224 °C
27 | CCn1c(-c2cccc(F)c2F)nc2c(N)nc(C#CC3(O)CCCC3)nc21.Cl | 138 to 140 °C
28 | CCCn1c(-c2cc(F)cc(F)c2)nc2c(N)nc(C#CC(C)(C)O)nc21.Cl | 148 to 150 °C
29 | Cl.Nc1nc(C#CC2(O)CCC2)nc2c1nc(-c1cccc(F)c1)n2C1CC1 | 167 to 170 °C
30 | CCCn1c(-c2cccc(F)c2F)nc2c(N)nc(C#CC3(O)CCC3)nc21.Cl | 124 to 127 °C
31 | CCCn1c(-c2cccc(F)c2F)nc2c(N)nc(C#CC3(O)CCCC3)nc21.Cl | 184 to 188 °C
32 | CCCn1c(-c2cccc(F)c2F)nc2c(N)nc(C#CC(C)(C)O)nc21.Cl | 230 to 233 °C
33 | CCCn1c(-c2cccc(F)c2F)nc2c(N)nc(C#CC(O)(CC)CC)nc21.Cl | 187 to 188 °C
34 | Cl.Nc1nc(C#CC2(O)CCC2)nc2c1nc(-c1cc(F)ccc1F)n2C1CC1 | 161 to 164 °C
35 | Cl.Nc1nc(C#CC2(O)CCCC2)nc2c1nc(-c1cc(F)ccc1F)n2C1CC1 | 230 to 232 °C
36 | CC(C)(O)C#Cc1nc(N)c2nc(-c3cc(F)ccc3F)n(C3CC3)c2n1.Cl | 196 to 198 °C
37 | CCC(O)(C#Cc1nc(N)c2nc(-c3cc(F)ccc3F)n(C3CC3)c2n1)CC.Cl | 215 to 216 °C
38 | CCCn1c(-c2cc(F)ccc2F)nc2c(N)nc(C#CC3(O)CCCC3)nc21.Cl | 232 to 234 °C
39 | CCCn1c(-c2cc(F)ccc2F)nc2c(N)nc(C#CC3(O)CCC3)nc21.Cl | 225 to 226 °C
40 | CCn1c(-c2cc(F)ccc2F)nc2c(N)nc(C#CC3(O)CCC3)nc21.Cl | 141 to 143 °C

Row | Compound | melting point
41 | CCn1c(-c2cc(F)ccc2F)nc2c(N)nc(C#CC3(O)CCCC3)nc21.Cl | 191 to 194 °C
42 | CCn1c(-c2cc(F)ccc2F)nc2c(N)nc(C#CC(C)(C)O)nc21.Cl | 215 to 218 °C
43 | CCn1c(-c2cc(F)ccc2F)nc2c(N)nc(C#CC(O)(CC)CC)nc21.Cl | 163 to 166 °C
44 | CCCn1c(-c2cc(F)ccc2F)nc2c(N)nc(C#CC(C)(C)O)nc21.Cl | 194 to 196 °C
45 | CCCn1c(-c2cc(F)ccc2F)nc2c(N)nc(C#CC(O)(CC)CC)nc21.Cl | 164 to 165 °C
46 | Cl.Cn1c(-c2ccco2)nc2c(N)nc(C#CCCO)nc21 | 161 to 164 °C
47 | CCn1c(-c2cccc(F)c2)nc2c(N)nc(/C=C/C3(O)CCC3)nc21.Cl | 178 to 180 °C
48 | CCCCC#Cc1nc(N)c2nc(-c3ccco3)n(C)c2n1.Cl | 178 to 181 °C
49 | Cl.Cn1c(-c2cccc(F)c2)nc2c(N)nc(/C=C/C(C)(C)O)nc21 | > 290 °C
50 | Cl.Cn1c(-c2cccc(F)c2)nc2c(N)nc(/C=C/C3(O)CCCCC3)nc21 | 222 to 225 °C
51 | Cl.Cn1c(-c2ccco2)nc2c(N)nc(C#CC3(O)CCCC3)nc21 | 168 to 172 °C
52 | Cl.Cn1c(-c2ccco2)nc2c(N)nc(C#CCCC3CCCCC3)nc21 | 165 to 169 °C
53 | Cl.Cn1c(-c2ccco2)nc2c(N)nc(C#CC3CCCCC3)nc21 | 155 to 160 °C
54 | Cl.Nc1nc(C#CC2(O)CCCCC2)nc2c1nc(-c1cccc(F)c1)n2C1CCCC1 | 196 to 200 °C
55 | CC(C)C(O)C#Cc1nc(N)c2nc(-c3cccc(F)c3)n(C)c2n1.Cl (stereo not drawn) | 170 to 173 °C
56 | CCC(O)C#Cc1nc(N)c2nc(-c3cccc(F)c3)n(C)c2n1.Cl (stereo not drawn) | 171 to 175 °C
57 | CCn1c(-c2cccc(F)c2)nc2c(N)nc(C#CC(O)(CC)CC)nc21.Cl | 150 to 153 °C
58 | Cl.Cn1c(-c2cc(F)cc(F)c2)nc2c(N)nc(C#CC3(O)CCCC3)nc21 | 255 to 258 °C
59 | CN(C)c1ccc(-n2c(-c3cccc(F)c3)nc3c(N)nc(C#CC4(O)CCCCC4)nc32)cc1 (as salt: hydrochloride) [Example 3, 1-{2-[6-Amino-9-[4-(dimetylamino)phenyl]-8-(3-fluorophenyl)-9H-2-purinyl]-1-ethynyl}-1-cyclohexanol Dihydrochloride] | 255 to 260 °C
60 | CC(O)C#Cc1nc(N)c2nc(-c3ccco3)n(C)c2n1 (stereo not drawn) [Example 23, 4-[6-Amino-8-(2-furyl)-9-methyl-9H-2-purinyl]-3-butyn-2-ol] | 155 to 158 °C

Reference: US6579868B1, “Purine derivatives and adenosine A2 receptor antagonists serving as preventives/remedies for diabetes” (Eisai Co., Ltd., priority 1998, dated 2003)
